Measurements published in patent US5665769A, “Pharmaceutical composition for preventing and treating retinal diseases” (Senju Pharmaceuticals Co., Ltd., priority 1993, dated 1997).
Values joined by “and” are separate entries in the source; they are usually repeats but may differ in a detail not shown here. Equal entries are not always repeated.

Legend:
Format in all cases: in vivo
[1] = tested on: retinal rhodopsin; assay: Retinal light damage in rats, retinal rhodopsin amount (Experiment 2 (B-1)); settings: for Amount of retinal rhodopsin: mean ± S.D.
Procedure: (§1) (B) In vivo experiment by light exposure in rats
(§2) (B-1) Evaluation by retinal pathological tissues and rhodopsin amount
(§3) Rats were subjected to dark adaptation for 72 hours. Then the rats were irradiated continuously for 12 hours using a green fluorescent lamp (10 W, 490-580 nm), the illumination intensity of which was adjusted to 2000 to 2400 lux. A suspension of 1.5% or 5.0% 2-O-octadecylascorbic acid was orally administered three times a day (90, 300 mg/kg/day) on the day of light exposure, and once a day (30, 100 mg/kg/day) after that. To the control group was administered 5.0% gum arabic solution (control) according to the same schedule. After completion of the light exposure, the rats were reared in a dark room and sacrificed on the 5th day. The right eyes were marked with ink in the upper part and fixed with 2% paraformaldehyde and 2% glutaraldehyde solutions. Histopathological evaluation was made using a light microscope and the thickness of retinae (thickness of retinal entire layer and outer nuclear layer) was measured. The left eyes were stored under freezing conditions at -20° C. for rhodopsin determination after removal of the cornea, lens and vitreous body.
Rhodopsin was determined as follows. Firstly, the optic cup was sliced under a red lamp in a dark room, and retinal homogenates were prepared using 0.1M phosphate buffer (pH 7.2). After centrifugation at 15,000 rpm for 15 minutes, the precipitation was treated with 4% potassium alum solution. After washing, rhodopsin was extracted with 1% Emulphogen BC-720 (trade mark). The absorbance at 500 nm was measured using the centrifuged supernatant as the sample. The sample was bleached by light exposure with a yellow lamp for 5 minutes. The absorbance at 500 nm was measured again. The rhodopsin amount was calculated from the difference between the absorbances before and after the bleach (molar absorption coefficient: 42,000).

[2] = tested on: retina (rat); assay: Retinal light damage in rats, histopathology and retinal thickness (Experiment 2 (B-1)); parameters: key to Vacuolation of retinal pigment epithelium / Disarrangement or vacuolation of inner and outer segments of visual cells / Infiltration of macrophage / Pyknosis and nuclear disappearance in outer nuclear layer / Thinning of retinal entire layer: -: not observable; ±: slightly observable; +: observable; ++: remarkably observable; settings: for Vacuolation of retinal pigment epithelium / Disarrangement or vacuolation of inner and outer segments of visual cells / Infiltration of macrophage / Pyknosis and nuclear disappearance in outer nuclear layer / Thinning of retinal entire layer: one line per animal
Procedure: as §1, §2, §3

[3] = tested on: retina (ERG in rats); assay: ERG in rats after light exposure for 3 days (Experiment 2 (B-2), Method 1); settings: 5.0% suspension, oral 200 mg/kg/day on day of light exposure, 100 mg/kg/day other days; light 3 days
Procedure: FIG. 4 is a graph showing the b-wave amplitude of ERG in rats after light exposure for 3 days in Experiment 2 (B-2)(Method 1). The abscissa indicates time (day) after light exposure and the ordinate indicates b-wave amplitude (mv).
(B-2) Evaluation by ERG determination
Rats were subjected to dark adaptation for 24 hours. Continuous light exposure for 20 hours was repeated for 3 successive days using a green fluorescent lamp (490-580 nm), the illumination intensity of which was adjusted to 600 to 700 lux. ERG was measured for 3 successive days after dark adaptation for 2 hours after completion of everyday light exposure. After that, the rats were reared in a dark room, and ERG was measured on the 7th day after the light exposure, and evaluated for the amplitude of a-wave and b-wave and the latency of a-wave. From the day before the light exposure, a 5.0% 2-O-octadecylascorbic acid suspension or 5.0% gum arabic solution (control) was orally administered twice a day (200 mg/kg/day) on the day of the light exposure and once a day (100 mg/kg/day) on other days.

[4] = 1.5% suspension, mean ± S.D., n=5
[5] = 1.5% suspension, Nos. 1-5 in order
[6] = 5.0% suspension, mean ± S.D., n=3
[7] = 5.0% suspension, Nos. 1-3 in order

CCCCCCCCCCCCCCCCCCOC1=C(O)[C@@H]([C@@H](O)CO)OC1=O [2-O-octadecylascorbic acid]
Amount of retinal rhodopsin ([1]; 1.5% suspension, n=5): 0.51 ± 0.20 nM/eye
Amount of retinal rhodopsin ([1]; 5.0% suspension, n=3): 0.69 ± 0.14 nM/eye
decrease of the amount of rhodopsin by light exposure (in words) ([1]; suspension administered groups): the tendency to inhibit the decrease of the amount of rhodopsin by light exposure was observed
examples (animals) with remarkably observed retinal lesions ([2]; 1.5% suspension): four of five examples
Vacuolation of retinal pigment epithelium ([2]; 1.5% suspension (90 mg/kg/day oral on day of exposure, then 30), Nos. 1-5 in order): +
Thickness of outer nuclear layer, lesion [2, 4]: 16.0 ± 7.2 µM
Thickness of outer nuclear layer, near optic disk [2, 4]: 39.0 ± 8.8 µM
Thickness of retinal entire layer, lesion [2, 4]: 88.5 ± 22.3 µM
Thickness of retinal entire layer, near optic disk [2, 4]: 135.5 ± 27.9 µM
Disarrangement or vacuolation of inner and outer segments of visual cells [2, 5]: ++ (4×) and +
Infiltration of macrophage [2, 5]: ++ (4×) and -
Pyknosis and nuclear disappearance in outer nuclear layer [2, 5]: ++ (4×) and ±
Thinning of retinal entire layer [2, 5]: ++ (4×) and -
examples (animals) with remarkably observed retinal lesions ([2]; 5.0% suspension): one of three examples
Vacuolation of retinal pigment epithelium ([2]; 5.0% suspension (300 mg/kg/day oral on day of exposure, then 100), Nos. 1-3 in order): - and + (2×)
thickness of the retinal entire layer near optic disk (in words) ([2]; 5.0% suspension, compared with control): significantly larger than that in the control group
severity of lesions ([2]; 5.0% suspension, compared with control group): not so severe as those of the control group
Thickness of outer nuclear layer, lesion [2, 6]: 19.2 ± 11.3 µM
Thickness of outer nuclear layer, near optic disk [2, 6]: 48.3 ± 1.4 µM
Thickness of retinal entire layer, lesion [2, 6]: 84.2 ± 16.3 µM
Disarrangement or vacuolation of inner and outer segments of visual cells [2, 7]: ± and + and ++
Infiltration of macrophage [2, 7]: - (2×) and ++
Pyknosis and nuclear disappearance in outer nuclear layer [2, 7]: ± and + and ++
Thinning of retinal entire layer [2, 7]: - and + and ++
thickness of the outer nuclear layer near optic disk (in words) ([2]; suspension administered groups, compared with control): tends to be larger than that in the control group
decrease of the b-wave amplitude [3]: the tendency to inhibit the decrease of the b-wave amplitude was observed
